Literature values in patent EP0266968A2, “Gelled ointment of vasodilating agent” (Cohen, Gérard G., priority 1986, dated 1988).

Tested on: penile arteries

SMILES: COc1ccc(Cc2nccc3cc(OC)c(OC)cc23)cc1OC [papaverine]
- erections in the organic group (29 organic impotent males, intracavernous injection): delayed, weaker and shorter erections
- duration of penile erections (40 to 160 mg injected intracavernously): approximately 2 hours
- patients whose erections improved significantly (63 patients with angiogenic impotence, repeated intracavernous injections completed by infusion of heparinized saline, mean follow up of one year): 66%
- haemodynamic and radiologic studies (done concomitantly with intracavernous injection): strong vasodilation in the penile arteries (even when pathologic) and diminished outflow from the cavernous bodies
